Measured values: patent publication US11141413B2, “Method of treating renal cell carcinoma using N-(4-(6,7-dimethoxyquinolin-4-yloxy)phenyl)-N′-(4-fluorophenyl)cyclopropane-1,1-dicarboxamide, (2S)-hydroxybutanedioate” (Exelixis, Inc., priority 2016, dated 2021)
Each block holds one compound with its values, some of them ahead of it.

Experiments:
[1] = Solubility in aqueous media; type: physicochemical
[2] = system: metastatic renal cell carcinoma (mRCC); test: CABOSUN (ALLIANCE A031203) trial, cabozantinib vs sunitinib as initial targeted therapy
Experimental: Pts were randomized 1:1 to receive Cabo (60 mg QD) or Sun (50 mg QD, 4 weeks on/2 weeks off). Pts were stratified by the IMDC risk groups (intermediate vs. poor risk) and bone metastasis (yes, no). […] Secondary endpoints included OS, investigator-assessed overall response rate (ORR), and toxicity. The Kaplan-Meier product-limit estimator was used to estimate the OS between treatment arms.

[3] = system: advanced renal cell carcinoma; conditions: nivolumab study; cited from earlier work

Compound: COc1cc2nccc(Oc3ccc(NC(=O)C4(C(=O)Nc5ccc(F)cc5)CC4)cc3)c2cc1OC.O=C(O)C[C@H](O)C(=O)O [Cabozantinib (S)-malate salt, N-(4-(6,7-dimethoxyquinolin-4-yloxy)phenyl)-N′-(4-fluorophenyl)cyclopropane-1,1-dicarboxamide, (2S)-hydroxybutanedioate]
Solubility in aqueous media [1]: practically insoluble in aqueous media

Diarrhea, grade 3 or 4 ([2]; human, in vivo): I1%
Fatigue, grade 3 or 4 ([2]; human, in vivo): 15%
Hypertension, grade 3 or 4 ([2]; human, in vivo): 22%
Palmar-plantar erythrodysesthesia, grade 3 or 4 ([2]; human, in vivo): 4%
Compound: CCN(CC)CCNC(=O)c1c(C)[nH]c(/C=C2\C(=O)Nc3ccc(F)cc32)c1C [sunitinib, reference compound]
All-causality grade 3 or 4 adverse events ([2]; human, in vivo): 68%
Hematologic adverse events, grade 3 or 4 ([2]; human, in vivo): 22%
Median OS ([2]; in vivo): 21.8 months
ORR ([2]; in vivo): 18%
Median PFS ([2]; untreated mRCC, intermediate or poor risk): 5.6 months

Compound: nivolumab
Hazard ratio for death vs everolimus [3]: 0.73
